From article PMC5993640 (European journal of medicinal chemistry, 2018)
Values joined by “and” are separate entries in the source; they are usually repeats but may differ in a detail not shown here. Identical values can stand only once. Like-named read-outs stand apart in the source and are kept apart here.

Columns and labels:
[1] = Aqueous solubility; format: physicochemical; conditions: universal aqueous buffer
[2] = tested on: HIV-1HXB2 WT and Env gp120 mutated pseudoviruses; test: microbe, parasite or virus in culture; format: cell-based; conditions: Human immunodeficiency virus 1, U87.CD4.CXCR4
[3] = target: hERG potassium channel (Homo sapiens, UniProt Q12809); test: hERG channel inhibition, whole-cell patch clamp in HEK293 cells; format: cell-based; conditions: HEK293 cells stably transfected with hERG cDNA
[4] = Cytotoxicity in U87-CD4-CXCR4 cells; format: cell-based; conditions: human
[5] = Plasma protein binding; format: in vitro ADME
[6] = tested on: VSV-G; format: cell-based; conditions: U87-CD4-CXCR4 cells
[7] = tested on: HIV-1 mediated cell-cell fusion; test: HIV-1 mediated cell-cell fusion inhibition assay; format: cell-based; conditions: HL2/3 effector and TZM-bl target cells
[8] = Metabolic stability in human liver microsomes; conditions: 3 μM
[9] = Cytotoxicity in TZM-bl cells; format: cell-based; conditions: human
[10] = tested on: HIV-1HXB2; format: cell-based
[11] = tested on: HIV-1IIIB; test: Multi-cycle infection assay in MT-2 cells
[12] = tested on: TZM-bl cells; test: Cytotoxicity in TZM-bl cells; format: cell-based; conditions: read-out: Toxicity CC50 (TZM-bl)
[13] = tested on: MT-2 cells; test: Cytotoxicity in MT-2 cells; format: cell-based; conditions: read-out: Toxicity CC50 (MT-2)
[14] = pH 7.4, Solubility Range when prepared at 500 μM, With 5% DMSO, pH7.4 (first line)
[15] = pH 7.4, aqueous solubility, DMSO concentration of 2%
[16] = read-out: HIV-1IIIB IC50, MT-2 cells, multi-cycle, mean ± SD, n=3

hERG potassium channel, sequence (Q12809 whole entry): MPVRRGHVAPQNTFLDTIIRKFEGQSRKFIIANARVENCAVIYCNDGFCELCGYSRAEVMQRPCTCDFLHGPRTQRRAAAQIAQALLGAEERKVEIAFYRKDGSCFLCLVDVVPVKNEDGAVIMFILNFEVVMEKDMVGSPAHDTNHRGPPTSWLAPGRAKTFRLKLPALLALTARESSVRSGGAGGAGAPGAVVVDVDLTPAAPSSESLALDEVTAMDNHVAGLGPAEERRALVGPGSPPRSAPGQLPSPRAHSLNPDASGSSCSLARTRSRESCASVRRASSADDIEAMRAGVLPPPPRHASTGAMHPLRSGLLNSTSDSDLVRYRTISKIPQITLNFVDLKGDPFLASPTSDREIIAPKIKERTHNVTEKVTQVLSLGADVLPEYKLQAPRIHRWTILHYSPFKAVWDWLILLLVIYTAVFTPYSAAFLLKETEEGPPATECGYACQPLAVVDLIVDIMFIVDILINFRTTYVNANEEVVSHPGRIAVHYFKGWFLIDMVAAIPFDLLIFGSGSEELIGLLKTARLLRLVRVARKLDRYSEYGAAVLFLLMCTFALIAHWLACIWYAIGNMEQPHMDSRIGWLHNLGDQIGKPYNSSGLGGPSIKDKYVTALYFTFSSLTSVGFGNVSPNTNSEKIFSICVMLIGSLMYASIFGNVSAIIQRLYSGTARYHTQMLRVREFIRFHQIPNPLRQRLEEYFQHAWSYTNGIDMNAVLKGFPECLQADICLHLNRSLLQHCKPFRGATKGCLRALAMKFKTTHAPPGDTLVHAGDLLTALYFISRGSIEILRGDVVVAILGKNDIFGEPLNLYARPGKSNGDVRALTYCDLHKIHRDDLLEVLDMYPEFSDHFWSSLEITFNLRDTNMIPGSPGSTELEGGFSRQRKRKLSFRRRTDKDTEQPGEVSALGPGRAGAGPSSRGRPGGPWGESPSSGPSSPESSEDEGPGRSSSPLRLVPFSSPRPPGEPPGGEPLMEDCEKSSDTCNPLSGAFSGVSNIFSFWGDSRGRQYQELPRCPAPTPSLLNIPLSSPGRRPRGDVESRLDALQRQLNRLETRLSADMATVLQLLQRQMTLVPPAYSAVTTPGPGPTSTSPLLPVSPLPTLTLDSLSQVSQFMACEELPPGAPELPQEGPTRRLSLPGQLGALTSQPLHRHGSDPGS

Question: Which solubility at 90 min [1, 14] does the source give for COc1cnc(-n2cnc(C)n2)c2[nH]cc(C(=O)C(=O)N3CCN(C(=O)c4ccccc4)CC3)c12 [BMS-626529, reference compound] here?
Answer: 100 µM to 500 µM and 47.3 µg/mL to 237 µg/mL

Question: What about the IC50 [2] of the same compound?
Answer: ~0.008 µM

Question: For COc1cc(N)c(Cl)cc1C(=O)NC1CCN(CCCOc2ccc(F)cc2)CC1OC (centres unmarked) [Cisapride], which inhibition at 0.09 µM [3] is on record?
Answer: 85.2 ± 2.3%

Question: Which solubility at 90 min [1, 14] does the source give for NCC(NC(=O)c1ccc(-c2cc(F)c(Cl)c(F)c2)[nH]1)c1nc(CO)cs1 (centres unmarked) [Compound 39, N-(2-Amino-1-(4-(hydroxymethyl)thiazol-2-yl)ethyl)-5-(4-chloro-3,5-difluorophenyl)-1H-pyrrole-2-carboxamide] here?
Answer: ~206 µg/mL

Question: What about the solubility at 90 min [1, 15] of the same compound?
Answer: 100 to 500 µM

Question: What about the CC50 at 3 days [4] of the same compound?
Answer: 39.3 ± 2.3 µM

Question: What about the “bound to proteins in human plasma” value [5] of the same compound?
Answer: > 99%

Question: What about the “Control VSV-G IC50” value [6] of the same compound?
Answer: poorly active

Question: And the “IC50 HIV-1 mediated cell-cell fusion” value [7]?
Answer: active at slightly higher concentration than NBD-556 and 55

Question: And the “parent compound remaining at 120 min (% of 0 min)” value [8]?
Answer: 88.5 to 90.4%

Question: With NC[C@@H](NC(=O)c1ccc(-c2ccc(C(F)(F)F)cc2)[nH]1)c1ncc(CO)s1 [Compound 48, N-(2-Amino-1-(5-(hydroxymethyl)thiazol-2-yl)ethyl)-5-(4-(trifluoromethyl)phenyl)-1H-pyrrole-2-carboxamide] as the compound, how does the CC50 at 3 days [4] read?
Answer: 46.4 ± 4.7 µM

Question: And the CC50 at 72 h [9]?
Answer: 42.4 ± 1 µM

Question: What about the “Control VSV-G IC50” value [6] of the same compound?
Answer: poorly active

Question: And the “IC50 HIV-1 mediated cell-cell fusion” value [7]?
Answer: active at slightly higher concentration than NBD-556 and 55

Question: With NC[C@H](NC(=O)c1ccc(-c2ccc(C(F)(F)F)cc2)[nH]1)c1nc(CO)cs1 [Compound 49, N-(2-Amino-1-(4-(hydroxymethyl)thiazol-2-yl)ethyl)-5-(4-(trifluoromethyl)phenyl)-1H-pyrrole-2-carboxamide] as the compound, how does the “fold enhancement in antiviral potency (IC50) after CH2OH switch C5 to C4” value ([10]; HIV-1HXB2 in TZM-bl cells, 39 vs NBD-14107, 49 vs 47, 55 vs 53) read?
Answer: ~ 3.4 fold

Question: With CNC[C@H](NC(=O)c1ccc(-c2ccc(C(F)(F)F)cc2)[nH]1)c1nc(CO)cs1 [Compound 51, N-(1-(4-(Hydroxymethyl)thiazol-2-yl)-2-(methylamino)ethyl)-5-(4-(trifluoromethyl)phenyl)-1H-pyrrole-2-carboxamide] as the compound, how does the IC50 ([11]; Human immunodeficiency virus 1, MT2, read-out: HIV-1IIIB IC50) read?
Answer: 0.1 µM

Question: With NCC(NC(=O)c1ccc(-c2ccc(C(F)(F)F)c(F)c2)[nH]1)c1nc(CO)cs1 (centres unmarked) [Compound 55, N-(2-Amino-1-(4-(hydroxymethyl)thiazol-2-yl)ethyl)-5-(3-fluoro-4-(trifluoromethyl)-phenyl)-1H-pyrrole-2-carboxamide] as the compound, how does the solubility at 90 min [1, 14] read?
Answer: 100 µM to 500 µM and 42.4 µg/mL to 214 µg/mL

Question: And the solubility at 90 min [1, 15]?
Answer: 100 to 500 µM

Question: What about the “bound to proteins in human plasma” value [5] of the same compound?
Answer: > 99%

Question: What about the “Control VSV-G IC50” value [6] of the same compound?
Answer: poorly active

Question: What about the “parent compound remaining at 120 min (% of 0 min)” value [8] of the same compound?
Answer: 88.5 to 90.4%

Question: Which CC50 [12] does the source give for “N-(2-Amino-1-(5-(hydroxymethyl)oxazol-2-yl)ethyl)-5-(4-chloro-3,5-difluorophenyl)-1H-pyrrole-2-carboxamide [Compound 66]” here?
Answer: 30.9 ± 1.7 µM

Question: What about the CC50 [13] of the same compound?
Answer: 44.7 ± 1.5 µM

Question: What about the IC50 ([10]; read-out: HIV-1HXB2 IC50, TZM-bl cells, single-cycle, mean ± SD, n=3) of the same compound?
Answer: 0.76 ± 0.1 µM

Question: What about the IC50 [11, 16] of the same compound?
Answer: 0.9 ± 0.1 µM

Question: With “N-(2-Amino-1-(5-(hydroxymethyl)oxazol-2-yl)ethyl)-5-(4-chloro-3,5-difluorophenyl)-1H-pyrrole-2-carboxamide [Compound 67]” as the compound, how does the CC50 [12] read?
Answer: 27.7 ± 0.5 µM

Question: And the CC50 [13]?
Answer: 26.5 ± 2 µM

Question: What about the IC50 [11, 16] of the same compound?
Answer: 0.8 ± 0.1 µM

Question: Which CC50 [12] does the source give for “N-(2-Amino-1-(5-(hydroxymethyl)thiazol-2-yl)ethyl)-5-(3,5-difluoro-4-(trifluoromethyl)-phenyl)-1H-pyrrole-2-carboxamide [Compound 57]” here?
Answer: 23 ± 0.6 µM

Question: And the CC50 [13]?
Answer: 14.3 ± 0.6 µM

Question: With “N-(2-Amino-1-(5-(hydroxymethyl)thiazol-2-yl)ethyl)-5-(3,5-difluoro-4-(trifluoromethyl)-phenyl)-1H-pyrrole-2-carboxamide [Compound 58]” as the compound, how does the CC50 [12] read?
Answer: 23.5 ± 0.5 µM

Question: And the CC50 [13]?
Answer: 15.5 ± 0.45 µM
